Results: patent US20250242064A1, “CXCR4-TARGETING COMPOUNDS, AND METHODS OF MAKING AND USING THE SAME” (PROVINCIAL HEALTH SERVICES AUTHORITY, priority 2022, published 2025)
Where a SMILES comes first, the peptide text is derived from it. Bridges are numbered along the chain shown (N, C = ends). Side-chain parts run from the residue outwards. [ ]: non-standard residue; d: D form. The star is where a group is joined. X4 = O=C(O)CN1CCN(CC(=O)O)CCN(CC(=O)N[C@@H](CS(=O)(=O)O)C(=O)NCCCC[C@H](NC(=O)CNC(=O)CCCc2ccc(Cl)cc2)C(=O)*)CCN(CC(=O)O)CC1; X7 = COc1ccc(CCCC(=O)NCCCC[C@H](NC(=O)CN2CCN(CC(=O)O)CCN(CC(=O)O)CCN(CC(=O)O)CC2)C(=O)*)cc1; 2Nal = N[C@@H](Cc1ccc2ccccc2c1)C(=O)O; Lys(iPr) = CC(C)NCCCC[C@H](N)C(=O)O; Cya = N[C@@H](CS(=O)(=O)O)C(=O)O

Test: in vivo
Set-up: species or system mice
Details: male, NOD.Cg-Rag1tm1Mom Il2rgtm1Wjl/SzJ (NRG), mouse, iv, total radioactivity
Experimental: The Z138 Mantle cell lymphoma cell line was purchased from the American Type Culture Collection (ATCC©CRL-3001). The cell line was cultured in a 5% CO2 atmosphere at 37° C. in a humidified incubator with IMDM medium supplemented with 10% fetal bovine serum, 100 I.U./mL penicillin, and 100 μg/mL streptomycin.
[^68Ga]GaCl3 was eluted from an iThemba Labs generator with a total of 4 mL of 0.1 M HCl. The eluted [^68Ga]GaCl3 solution was added to 2 mL of concentrated HCl. This radioactive mixture was then added to a DGA resin column and washed with 3 mL of 5 M HCl. The column was then dried with air and the [^68Ga]GaCl3 (0.10-0.50 GBq) was eluted with 0.5 mL of water into a vial containing a solution of the unlabeled precursor (25 μg) in 0.7 mL HEPES buffer (2 M, pH 5.3). The reaction mixture was heated in a microwave oven (Danby; DMW7700WDB) for 1 min at power setting 2. The mixture was purified by semi-prep HPLC and quality control was performed via analytical HPLC with the co-injection of the unlabeled standard with a one-twelfth of the radiotracer. Radiochemical yields (decay-corrected) were >50% and radiochemical purities were >95%.
Animal experiments were performed in accordance with guidelines established by the Canadian Council on Animal Care, under a research protocol approved by the Animal Ethics Committee of the University of British Columbia. For all studies, male NOD.Cg-Rag1tm1Momll2rgtm1Wjl/SzJ (NRG) mice were used and cells injected in a 100 μL solution of 1:1 ratio of PBS/Matrigel. For preclinical imaging and biodistribution studies, 5×10^6 cells of Z138, cells were subcutaneously inoculated on the left or right flank and tumors were grown to a size of 200-300 mm^3. […]
Under isoflurane anesthesia (2-2.5% isoflurane in 2 L/min 02), mice were injected intravenously with [^68Ga]Ga-BL34L6 or [^68Ga]Ga-BL34L7. Mice were euthanized by CO2 inhalation after anesthesia with isoflurane. Tissues were harvested, washed in PBS, patted dry, weighed, and then assayed radioactivity on a gamma counter. Counted radioactivities were converted to percentage injected dose per gram of tissue (% ID/g) using a calibration curve.

[1] = Biodistribution: Small Intestine

## COc1ccc(CCCC(=O)NCCCC[C@H](NC(=O)CN2CCN(CC(=O)O)CCN(CC(=O)O)CCN(CC(=O)O)CC2)C(=O)N[C@@H](CS(=O)(=O)O)C(=O)NCCCC[C@@H]2NC(=O)CC[C@H](C(=O)N[C@@H](CCCCNC(C)C)C(N)=O)NC(=O)[C@@H](C)NC(=O)[C@H](Cc3ccc4ccccc4c3)NC(=O)[C@@H](CCCNC(=N)N)NC(=O)[C@H](CCCCNC(C)C)NC(=O)[C@H](Cc3ccc(O)cc3)NC2=O)cc1 [[68Ga]Ga-BL34L6, metal not drawn] (K([Cya-X7])Y[Lys(iPr)][dR][2Nal][dA][dE][Lys(iPr)]-NH2; lactam N-7)
Biodistribution: Adrenals
  tissue uptake at 1 h: 0.29 %ID/g
Biodistribution: Blood
  tissue uptake at 1 h: 0.83 %ID/g
Biodistribution: Bone
  tissue uptake at 1 h: 0.14 %ID/g
Biodistribution: Brain
  tissue uptake at 1 h: 0.01 %ID/g
Biodistribution: Heart
  tissue uptake at 1 h: 0.22 %ID/g
Biodistribution: Kidneys
  tissue uptake at 1 h: 2.07 %ID/g
Biodistribution: Liver
  tissue uptake at 1 h: 1.6 %ID/g
Biodistribution: Lungs
  tissue uptake at 1 h: 0.99 %ID/g
Biodistribution: Muscle
  tissue uptake at 1 h: 0.12 %ID/g
Biodistribution: Pancreas
  tissue uptake at 1 h: 0.12 %ID/g
[1]
  tissue uptake at 1 h: 0.24 %ID/g
Biodistribution: Spleen
  tissue uptake at 1 h: 0.45 %ID/g
Biodistribution: Stomach
  tissue uptake at 1 h: 0.05 %ID/g
Biodistribution: Testes
  tissue uptake at 1 h: 0.26 %ID/g
Biodistribution: Z138 Tumor
  tissue uptake at 1 h: 8.92 %ID/g
Ratio Tumor-to-Blood
  tissue to tissue ratio at 1 h: 11.6
Ratio Tumor-to-Bone
  tissue to tissue ratio at 1 h: 66.5
Ratio Tumor-to-Kidney
  tissue to tissue ratio at 1 h: 4.36
Ratio Tumor-to-Muscle
  tissue to tissue ratio at 1 h: 84.6
Ratio Tumor-to-Pancreas
  tissue to tissue ratio at 1 h: 75.3

## CC(C)NCCCC[C@H](NC(=O)[C@H]1CCC(=O)N[C@@H](CCCCNC(=O)[C@H](CCCCNC(=O)[C@H](CS(=O)(=O)O)NC(=O)CN2CCN(CC(=O)O)CCN(CC(=O)O)CCN(CC(=O)O)CC2)NC(=O)CNC(=O)CCCc2ccc(Cl)cc2)C(=O)N[C@@H](Cc2ccc(O)cc2)C(=O)N[C@@H](CCCCNC(C)C)C(=O)N[C@H](CCCNC(=N)N)C(=O)N[C@@H](Cc2ccc3ccccc3c2)C(=O)N[C@H](C)C(=O)N1)C(N)=O [[68Ga]Ga-BL34T1, metal not drawn] (K(X4)Y[Lys(iPr)][dR][2Nal][dA][dE][Lys(iPr)]-NH2; lactam N-7)
Biodistribution: Adrenals
  tissue uptake at 1 h: 2.62 %ID/g
  tissue uptake at 3 h: 1.93 %ID/g
Biodistribution: Blood
  tissue uptake at 1 h: 13.3 %ID/g
  tissue uptake at 3 h: 7.55 %ID/g
Biodistribution: Bone
  tissue uptake at 1 h: 1.04 %ID/g
  tissue uptake at 3 h: 1.28 %ID/g
Biodistribution: Brain
  tissue uptake at 1 h: 0.19 %ID/g
  tissue uptake at 3 h: 0.16 %ID/g
Biodistribution: Heart
  tissue uptake at 1 h: 3.11 %ID/g
  tissue uptake at 3 h: 1.91 %ID/g
Biodistribution: Kidneys
  tissue uptake at 1 h: 5.01 %ID/g
  tissue uptake at 3 h: 4.15 %ID/g
Biodistribution: Liver
  tissue uptake at 1 h: 2.9 %ID/g
  tissue uptake at 3 h: 3.02 %ID/g
Biodistribution: Lungs
  tissue uptake at 1 h: 9.23 %ID/g
  tissue uptake at 3 h: 5.9 %ID/g
Biodistribution: Muscle
  tissue uptake at 1 h: 0.99 %ID/g
  tissue uptake at 3 h: 0.73 %ID/g
Biodistribution: Pancreas
  tissue uptake at 1 h: 1.24 %ID/g
  tissue uptake at 3 h: 0.92 %ID/g
[1]
  tissue uptake at 1 h: 1.31 %ID/g
  tissue uptake at 3 h: 0.89 %ID/g
Biodistribution: Spleen
  tissue uptake at 1 h: 2.3 %ID/g
  tissue uptake at 3 h: 2.08 %ID/g
Biodistribution: Stomach
  tissue uptake at 1 h: 0.49 %ID/g
  tissue uptake at 3 h: 0.44 %ID/g
Biodistribution: Testes
  tissue uptake at 1 h: 1.95 %ID/g
  tissue uptake at 3 h: 1.71 %ID/g
Biodistribution: Z138 Tumor
  tissue uptake at 1 h: 12.2 %ID/g
  tissue uptake at 3 h: 23.7 %ID/g
Ratio Tumor-to-Blood
  tissue to tissue ratio at 1 h: 0.93
  tissue to tissue ratio at 3 h: 3.17
Ratio Tumor-to-Bone
  tissue to tissue ratio at 1 h: 12.7
  tissue to tissue ratio at 3 h: 21.9
Ratio Tumor-to-Kidney
  tissue to tissue ratio at 1 h: 2.52
  tissue to tissue ratio at 3 h: 5.78
Ratio Tumor-to-Muscle
  tissue to tissue ratio at 1 h: 12.8
  tissue to tissue ratio at 3 h: 32.6
Ratio Tumor-to-Pancreas
  tissue to tissue ratio at 1 h: 10.1
  tissue to tissue ratio at 3 h: 26
